Assay results as given in patent publication US11447485B2, “Class of bifunctional compounds with quanternary ammonium salt structure” (Beijing Showby Pharmaceutical Co., Ltd., priority 2016, dated 2022).

Tests used:
[1] = test system: tracheal smooth muscle of guinea pig; assay: Relaxation of CCh-induced constriction of isolated guinea pig tracheal smooth muscle (Experimental Example 1); conditions: for Onset time (min) ± SD / Time for eliminating inhibition effect (min): CCh 3 × 10^−6 mol/L, in vitro; for EC50: Cavia porcellus, read-out: EC50 (μM) ± SD
Method: The upper end was connected with a muscle tension transducer, and the specimen was given a resting tension of 1.0 g. Muscle tension changes were recorded, nutrient solution was changed every 20 min, and the experiment was started after 60 min of equilibrium.
Administration Method: After the trachea flake were stabilized, 3×10^−6 mol/L CCh was added to the bath. […] Diastolic condition of the trachea flake was observed. If no response occurred (below the threshold concentration), the next dosage was continued to be added in the order. If any response occurred, the next dosage was added until its diastolic platform was reached. The above operation was repeated until the shrink curve reached the minimum. Finally, 10^−6 mol/L isoproterenol was added to establish maximum relaxation, and the curve was recorded.
Statistical Methods: Statistics was performed using the Sigma Stat statistical software package, the data was analyzed by using the variance analysis. Student-Newman-Keuls (SNK) test was used in comparison among multiple sample averages number. The statistical test level was α=0.05 (bilateral).

[2] = target: T1, human recombinant β2 adrenoceptor (Homo sapiens, UniProt P07550); assay: cell-based; assay type: cell-based; conditions: EC50 (β1)/EC50 (β2)
T1 construct: expressed in transfected cells
T1 sequence (P07550 whole entry): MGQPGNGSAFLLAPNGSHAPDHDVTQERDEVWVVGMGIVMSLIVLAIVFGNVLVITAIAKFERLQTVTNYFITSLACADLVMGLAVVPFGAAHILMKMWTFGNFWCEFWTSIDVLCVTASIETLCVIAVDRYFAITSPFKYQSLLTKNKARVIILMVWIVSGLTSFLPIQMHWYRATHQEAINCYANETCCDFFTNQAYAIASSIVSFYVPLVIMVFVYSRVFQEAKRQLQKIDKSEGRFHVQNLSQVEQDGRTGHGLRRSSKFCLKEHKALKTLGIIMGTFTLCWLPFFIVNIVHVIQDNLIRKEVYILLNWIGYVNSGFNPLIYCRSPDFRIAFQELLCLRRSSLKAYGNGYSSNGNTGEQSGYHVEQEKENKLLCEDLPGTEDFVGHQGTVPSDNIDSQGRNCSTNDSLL

[3] = test system: bronchoconstriction response in the trachea of guinea pig induced by Mch; assay: Bronchoconstriction induced by methacholine (Mch) in anaesthetized guinea pigs, airway dripping (Raw, Cdyn); conditions: Mch 10 μg/kg iv; for Cdyn (ml/cmH2O) / Raw (cmH2O/ml/s): 30 min, Mean ± S.E.M

SMILES	Onset time (min) ± SD [1] [min]	Time for eliminating inhibition effect (min) [1]	EC50 [1] [µM]	sel (β1/β2) [2]	Cdyn (ml/cmH2O) ([3]; 0.1 μg/kg airway dripping)	Raw (cmH2O/ml/s) ([3]; 0.1 μg/kg airway dripping)	inhibitory rate of lung dynamic compliance decrease ([3]; 0.1 μg/kg airway dripping) [%]	inhibitory rate on airway resistance increase ([3]; 0.1 μg/kg airway dripping) [%]	Cdyn (ml/cmH2O) ([3]; 0.3 μg/kg airway dripping)	Raw (cmH2O/ml/s) ([3]; 0.3 μg/kg airway dripping)	inhibitory rate of lung dynamic compliance decrease ([3]; 0.3 μg/kg airway dripping) [%]	inhibitory rate on airway resistance increase ([3]; 0.3 μg/kg airway dripping) [%]	Cdyn (ml/cmH2O) ([3]; 1 μg/kg airway dripping)	Raw (cmH2O/ml/s) ([3]; 1 μg/kg airway dripping)	inhibitory rate of lung dynamic compliance decrease ([3]; 1 μg/kg airway dripping) [%]	inhibitory rate on airway resistance increase ([3]; 1 μg/kg airway dripping) [%]
CC(C)(Cc1ccc(OCC[N+]23CCC(CC2)[C@@H](OC[C@@](O)(c2ccccc2)C2CCCCC2)C3)cc1)NC[C@H](O)c1ccc(O)c(NC=O)c1.[Br-] [Compound 99]	7.35 ± 0.33	more than 300 min	0.0172 ± 0.0072	389	0.120 ± 0.017	0.778 ± 0.073	35.0	73.5	0.158 ± 0.021	0.528 ± 0.082	48.8	86.8	0.223 ± 0.035	0.421 ± 0.069	49.7	91.9
COc1cc(NC(=O)CC[N+]23CCC(CC2)[C@@H](OC[C@@](O)(c2ccccc2)C2CCCC2)C3)c(Cl)cc1CNC[C@H](O)c1ccc(O)c(NC=O)c1.[Br-] [Compound 138]	6.56 ± 0.23	more than 300 min	0.0186 ± 0.0033	228.3	0.124 ± 0.019	0.687 ± 0.079	31.0	74.8	0.158 ± 0.036	0.508 ± 0.093	48.2	88.9	0.231 ± 0.022	0.418 ± 0.086	49.9	92.6
OCc1cc(C(O)CNCCOCCOCCOCC[N+]23CCC(CC2)C(OCC(O)(c2ccccc2)C2CCCC2)C3)ccc1O [Compound 45, (R)-(−)-3-[(R)-2-hydroxy-2-cyclopentyl-2-phenyl]ethoxy-1-(2-{2-[2-(2-{(R)-[2-(3-hydroxymethyl-4-hydroxy)phenyl-2-hydroxy]ethylamino}ethoxy)ethoxy]ethoxy}ethyl)-1-azabicyclo[2,2,2]octylonium bromide]	6.39 ± 0.56	more than 300 min	0.0278 ± 0.0091	120.3												
COc1cc(C(C)NC[C@H](O)c2ccc(O)c(CO)c2)ccc1OCCC[N+]12CCC(CC1)[C@@H](OC[C@@](O)(c1ccccc1)C1CCCC1)C2.[Br-] (stereo partly drawn) [Compound 70]	7.15 ± 0.31	more than 300 min	0.0183 ± 0.0087	379.8	0.218 ± 0.013	0.702 ± 0.098	34.2	69.6	0.357 ± 0.087	0.613 ± 0.107	47.8	86.5	0.345 ± 0.076	0.431 ± 0.095	49.3	92.1
O=c1ccc2c([C@@H](O)CNCc3ccc(OCCC[N+]45CCC(CC4)[C@@H](OC[C@@](O)(c4ccccc4)C4CCCC4)C5)cc3)ccc(O)c2[nH]1 [Compound 58, (R)-(−)-3-[(R)-2-hydroxy-2-cyclopentyl-2-phenyl]ethoxy-1-{3-[4-(1-{(R)-[2-hydroxy-2-(8-hydroxy-2-oxo-1,2-dihydroquinolin-5-yl)]ethylamino}methyl)phenoxy]propyl}-1-azabicyclo[2,2,2]octylonium bromide]	5.56 ± 0.24	more than 300 min	0.0131 ± 0.0088	89.8												
O=c1ccc2c([C@@H](O)CNCCC[N+]34CCC(CC3)[C@@H](OC[C@@](O)(c3ccccc3)C3CCCC3)C4)ccc(O)c2[nH]1 [Compound 2, (R)-(−)-3-[(R)-2-hydroxy-2-cyclopentyl-2-phenyl]ethoxy-1-(3-{(R)-[2-hydroxy-2-(8-hydroxy-2-oxo-1,2-dihydroquinolin-5-yl)]ethylamino}propyl)-1-azabicyclo[2,2,2]octylonium bromide]		more than 300 min	0.756 ± 0.26	7.8												
O=c1ccc2c([C@@H](O)CNCCOCCOCC[N+]34CCC(CC3)[C@@H](OC[C@@](O)(c3ccccc3)C3CCCC3)C4)ccc(O)c2[nH]1.[Cl-] [Compound 50]	6.76 ± 0.32	more than 300 min	0.0135 ± 0.0092	56.9												
OCc1cc([C@@H](O)CNCCOCCCOCC[N+]23CCC(CC2)[C@@H](OC[C@@](O)(c2ccccc2)C2CCCC2)C3)ccc1O.[Br-] [Compound 48]	6.32 ± 0.49	more than 300 min	0.0154 ± 0.012	423.8	0.115 ± 0.011	0.712 ± 0.065	32.2	66.2	0.139 ± 0.012	0.523 ± 0.032	48.9	88.3	0.207 ± 0.016	0.493 ± 0.071	50.1	91.6
O=C1COc2c(cc(O)cc2C(O)CNCCCCOCCCCC[N+]23CCC(CC2)C(OCC(O)(c2ccccc2)C2CCCC2)C3)N1 [Compound 26, (R)-(−)-3-[(R)-2-hydroxy-2-cyclopentyl-2-phenyl]ethoxy-1-[5-(4-{(R)-[2-hydroxy-2-(6-hydroxy-2H-1,4-benzoxazin-3(4H)-one-8-yl)]ethylamino}butoxy)pentyl]-1-azabicyclo[2,2,2]octylonium bromide]	6.56 ± 0.65	more than 300 min	0.087 ± 0.021	18.8												
O=C1COc2c(cc(O)cc2[C@@H](O)CNCc2cc(Cl)c(OCCC[N+]34CCC(CC3)[C@@H](OC[C@@](O)(c3ccccc3)C3CCCC3)C4)c(Cl)c2)N1.[Br-] [Compound 106]	6.26 ± 0.24	more than 300 min	0.0183 ± 0.0086	288.9												
CC(C)(NC[C@H](O)c1ccc(O)c2[nH]c(=O)ccc12)c1ccc(OCCC[N+]23CCC(CC2)[C@@H](OC[C@@](O)(c2ccccc2)C2CCCC2)C3)cc1 [Compound 84]	6.78 ± 0.18	more than 300 min	0.0251 ± 0.0086	238.8												
O=c1ccc2c([C@@H](O)CNCCc3ccc(OCCC[N+]45CCC(CC4)[C@@H](OC[C@@](O)(c4ccc(Cl)cc4)C4CCCC4)C5)cc3)ccc(O)c2[nH]1.[Br-] [Compound 78]	6.48 ± 0.38	more than 300 min	0.0137 ± 0.0078	108.6												
OCc1cc([C@@H](O)CNCCc2ccc(OCC[N+]34CCC(CC3)[C@@H](OC[C@@](O)(c3ccccc3)C3CCCC3)C4)cc2)ccc1O [Compound 57, (R)-(−)-3-[(R)-2-hydroxy-2-cyclopentyl-2-phenyl)]ethoxy-1-{2-[4-(2-{[(R)-[2-(3-hydroxymethyl-4-hydroxy)phenyl-2-hydroxy]ethylamino}ethyl)phenoxy]ethyl}-1-azabicyclo[2,2,2]octylonium bromide]	6.03 ± 0.18	more than 300 min	0.0265 ± 0.016	68.8												
